{"source": "patent US20160296437A1", "about": "“ORAL CARE ZINC COMPOSITIONS” (COLGATE-PALMOLIVE COMPANY, priority 2013, published 2016)", "key": {"[1]": {"test_system": "Actinobacillus actinomycetemcomitans (Aa) ATCC cat#29522", "assay": "Bacterial invasion of human periodontal ligament fibroblasts by Actinobacillus actinomycetemcomitans (internalized colony count)", "format": "cell-based", "conditions": "for reduces internalized Actinobacillus actinomycetemcomitans: versus Aa alone, HPdLF cells", "method": "(§1) Human periodontal ligament fibroblasts (HPdLF, Lonza cat#CC-7049) are seeded onto a plate and incubated at 37° C. in 5% CO2 overnight using SCGM bullet kit (Lonza, #CC-3205) containing Stromal cell basal medium, hFGF-B, insulin, FBS and GA-1000.\n(§2) Pathogenic bacteria Actinobacillus actinomycetemcomitans (Aa) ATCC cat#29522 or Porphyromonas gingivalis (Pg) ATCC cat#33277) are incubated overnight at 37° C. (using tryptic soy broth for Actinobacillus actinomycetemcomitans and half-strength brain heart infusion (supplemented with yeast extract, hemin and vitK1) for Porphyromonas gingivalis). The optical density (OD) at 610 nm is read. The bacteria are centrifuged at 8000 rpm for 10 mins and the pellet resuspended in cell culture media and diluted to OD610 of 0.1 to 0.2.\n(§3) The test sample (dissolved in water) is added to the cells and incubated at 37 C in 5% CO2 incubator for 30 minutes before the bacteria are added. The cells are infected with bacteria by adding the resuspended bacteria to the cells and further incubating at 37° C. in 5% CO2 incubator for 90 to 120 minutes.\nThe cells are washed five times with PBS to remove non-adherent bacteria. Fresh cell culture medium containing 1× penicillin (100 IU) and streptomycin (100 μg/ml) is added and the cells incubated at 37° C. in 5% CO2 incubator for 2 hours to kill extracellular bacteria. The medium is then removed and the cells washed three times with PBS. 1 ml 1% saponin solution in PBS is added to the infected cells for 5 minutes at. 37° C. to lyse the cells and release internalized bacteria. Dilutions (serial dilutions in PBS with dilution factor 10) are plated onto a suitable medium using a 100 μl sample and spread with a sterilized stick before incubating in an anaerobic chamber at 37° C. for 2-3 days and counting the resultant bacterial colonies."}, "[2]": {"test_system": "Porphyromonas gingivalis (Pg) ATCC cat#33277", "assay": "Bacterial invasion of human periodontal ligament fibroblasts by Porphyromonas gingivalis (internalized colony count)", "format": "cell-based", "method": "as §1, §2, §3\nThe cells are washed five times with PBS to remove non-adherent bacteria. Fresh cell culture medium containing 1× penicillin (100 IU) and streptomycin (100 μg/ml) is added and the cells incubated at 37° C. in 5% CO2 incubator for 2 hours to kill extracellular bacteria. […]"}}, "data": [{"smiles": "O=C([O-])CC(O)(CC(=O)[O-])C(=O)[O-].O=C([O-])CC(O)(CC(=O)[O-])C(=O)[O-].[Zn+2].[Zn+2].[Zn+2]", "note": "[ZnCitrate, zinc citrate]", "values": [{"measurement": "Bacterial Count", "setting": "[1]; Table 2, internalized Aa in HPdLF cells, sample at 8 ppm, Aa alone 178", "value": 64}, {"measurement": "reduces internalized Actinobacillus actinomycetemcomitans", "setting": "[1]; Table 2 experiment, at 8 ppm", "value": "approximately 66%"}]}, {"smiles": "[O]=[Zn]", "note": "[ZnO, zinc oxide]", "values": [{"measurement": "Bacterial Count", "setting": "[1]; Table 1, internalized Aa in HPdLF cells pretreated 30 minutes with sample, ZnO concentration not given, Aa alone 11800", "value": 10040}, {"measurement": "reduces internalized Actinobacillus actinomycetemcomitans", "setting": "[1]; Table 1 experiment", "value": "approximately 15%"}, {"measurement": "Bacterial Count", "setting": "[1]; Table 2, internalized Aa in HPdLF cells, sample at 4 ppm, Aa alone 178", "value": 137}, {"measurement": "reduces internalized Actinobacillus actinomycetemcomitans", "setting": "[1]; Table 2 experiment, at 4 ppm", "value": "approximately 23%"}, {"measurement": "Bacterial Count", "setting": "[2]; Table 1, internalized Pg in HPdLF cells pretreated 30 minutes with sample, ZnO concentration not given, Pg alone 11460", "value": 10760}, {"measurement": "reduces internalized Porphyromonas gingivalis", "setting": "[2]; Table 1 experiment, versus Pg alone, HPdLF cells", "value": "approximately 6%"}]}]}
